These results are taken from PMC5663395, “Chemical Validation of Methionyl-tRNA Synthetase as a Druggable Target in Leishmania donovani” (ACS Infectious Diseases, 2017).

In one assay the test system is THP-1 lysosomes. Briefly: Lysosomotropism assay (LysoTracker Red competition). It is filed as cell-based, human. To be noted: PMA-differentiated THP-1 cells, 30 min. The method, then: calculated, both in terms of pEC50 values. MIC (minimum inhibitory concentration) values are defined as the lowest concentration tested at which maximal inhibition is reached.
THP-1 cells were differentiated in 96-well plates with PMA as described above. Following differentiation the cells were treated for 30 min with dose-response curves of test compounds in presence of 100 nM LysoTracker Red DND-99 (Thermo Fisher) and 5 µg/ml Hoechst 33342. Next cells were washed 3 times with Hanks Buffered Saline Solution (Gibco) and imaged on a Perkin Elmer Operetta system. An image analysis algorithm to measure mean Lysotracker Red DND-99 intensity per cell was developed in Columbus. Mean Intensity was normalised using a no dye control (100% effect) and DMSO treated wells stained with Lysotracker Red DND-99 (0% effect control). Dose-response curves were fitted for the test compounds using a four-parameter equation (equation 5 above) and constrained to 0 and 100% where necessary.
To measure the pKa of DDD806905, a fast UV-metric method was performed using a Sirius T3 instrument (Sirius Analytical, U.K.). The calculation of the pKa was determined using the Sirius T3 refine software (Sirius Analytical, U.K.). In brief, the UV-metric pKa method is based on measuring pH during an acid-base titration and monitoring UV absorbance shift. The ionisation curve (Bjerrum curve) was then used to determine the pH where exactly 50 % of neutral and 50 % of ionised species was present. DDD806905 must be fully dissolved throughout the titration and so the titration is set to start at the pH where DDD806905 is in its fully ionised state. The appearance of precipitate was monitored throughout the experiment by a turbidity sensing device. […] The pKas of DDD806905 was determined at the pH where there was maximal change in UV absorbance with respect to pH. […]
LogD7.4 values were quantified using a Sirius T3 instrument (Sirius Analytical, U.K.). […] The instrument software calculated the pH of each data point using mass and charge balance equations and then fitted this theoretical data to the experimental data. […]

Assay [1] has as its system Leishmania donovani liver parasite burden. Description: Mouse visceral leishmaniasis efficacy model. To be noted: 30 mg/kg oral once daily for 10 days.
The next assay has as its target LdMetRS (Leishmania donovani, UniProt A0A3Q8IBX2). Description: LdMetRS biochemical enzyme assay (BIOMOL Green). To be noted: Table 1; read-out: LdMetRS IC50. The method, then: LdMetRS Assay Development and Kinetic Parameter Determinations
Activity of the LdMetRS enzyme was determined by monitoring levels of pyrophosphate released during the first step of the enzymatic reaction. The pyrophosphate formed was converted to two inorganic phosphate molecules using a pyrophosphatase enzyme and levels of the resulting phosphate molecules measured using the BIOMOL® Green reagent (Enzo Life Sciences) 2.
Following optimization of the assay buffer and determination of the enzyme linearity, 384-well plate based assays were carried out at room temperature in a 50 μl reaction volume containing 30 mM Tris, pH 8.0, 140 mM NaCl, 30 mM KCl, 40 mM MgCl2, 0.01% (v/v) Brij-35, 1 mM DTT, 1 U/ml pyrophosphatase, 50 nM recombinant LdMetRS, and varying concentrations of substrates. Michaelis constants for the ATP and methionine substrates were determined in an end point assay using the above buffer and enzyme conditions. Data were fitted to the modified Michaelis-Menten equations […]
Equation 1 (Hill equation): […]
Equation 2 (High substrate inhibition Michaelis-Menten equation): […]
LdMetRS Inhibitor Studies
All test compounds were solubilized in 100% DMSO to a concentration of 10 mM. To generate IC50 data for the compounds, assay ready plates containing 10-point inhibitor curves (half-log serial dilutions) were prepared using an Echo® 550 (Labcyte).
Following preparation of the inhibitor curves, assays were carried out at room temperature in clear, flat bottom, polystyrene, 384-well plates (Greiner). Each assay was performed in a 50 μl reaction volume containing 30 mM Tris; pH 8.0, 140 mM NaCl, 30 mM KCl, 40 mM MgCl2, 0.01% (v/v) Brij-35, 1 mM DTT, 1 U/ml pyrophosphatase, 50 nM recombinant LdMetRS, 50 µM methionine and 100 µM […]
Assays were performed by adding 25 μl buffer with enzyme to assay plates (with buffer only added to ‘no enzyme’ control wells) before the reaction was initiated with the addition of a 25 μl mix containing methionine, ATP and pyrophosphatase to all wells. Following a 120 min reaction at room temperature the assay was stopped with the addition of 50 μl BIOMOL® Green. The BIOMOL® Green signal was allowed to develop for 30 min before the absorbance of each well was read at 650 nm using an EnVision multilabel plate reader (PerkinElmer Life Sciences). All liquid dispensing steps were carried out using a Thermo Scientific WellMate dispenser (Matrix).
ActivityBase from IDBS (version 8.0.5.4) was used for data processing and analysis. All IC50 curve fitting was undertaken using ActivityBase XE (version 7.7.1) from IDBS. A four-parameter logistic dose-response curve was utilized with prefit used for all four parameters.
For DDD806905 Kiapp determinations, data fitting to the Morrison equation (equation 3) was carried out using GraFit v6.0 (Erithacus Software). It should be noted that data for fitting to the Morrison equation was normalised to a ‘100 µM DDD806905’ control rather than a ‘no enzyme’ control as […]
Equation 3 (Morrison equation): […]
vi = K1 −−([ ] [ ]ET+IT+Ki)−([ ] [ ]ET+IT+i)[ ] [ ]TIE4T
LdMetRS Mode of Inhibition Studies
To establish the mode of inhibition of DDD806905, data sets (generated using the BIOMOL® Green assay platform previously described) were collected by varying both the inhibitor and substrate concentrations. Using GraFit v6.0 (Erithacus Software) each data set was individually fitted to the Michaelis-Menten equation or the modified high substrate inhibition Michaelis-Menten equation described above (equation 2), and the resulting Lineweaver-Burk plots were examined for diagnostic […]
Data sets were then globally fitted to the appropriate model (with equations 4 and 5 used for […]
If more than one model appeared possible, then data were fitted to both and examined for significance using the F-test function in GraFit.

The subject of assay [2] is L. donovani axenic amastigotes. Briefly: Leishmania axenic amastigote viability assay. It is filed as cell-based, Leishmania donovani. To be noted: Leishmania donovani; Table 1; read-out: Leishmania Axenic Amastigote EC50. The method, then:
carried out as described above using 5%, 10% and 20% FBS in the media. To examine the effect of the methionine concentration on the potency of DDD806905 parasites were grown in the presence of drug and in the presence (or absence) of 20-fold excess methionine (0.3 g/l). IC50 curve fitting was undertaken in GraFit version 6.0 (Erithacus Software) using a four-parameter logistic dose-response curve (equation 6), with s the slope.
Leishmania Axenic Amastigote Assay
The Leishmania axenic amastigote assay was performed using the method published in Nühs et al 15.
Leishmania Intracellular Amastigote Assay
The intramacrophage Leishmania assay was performed using a modified version of the method described in De Rycker et al 16. […]
amphotericin B was included. Controls were as follows: columns 11 and 12: DMSO, columns 23 and 24: amphotericin B (final concentration 2 µM). 350 nl of compound was pre-dispensed into 384-well sterile intermediary plates. To the intermediary plates, 35 µl of THP-1 media was added and plates were shaken for >5 min to ensure complete mixing. THP-1 cells (8,000 per well, 50 µl) were plated into black clear-bottom 384-well plates (Corning) in presence of 20 nM phorbol 12-myristate 13- […]
in a humidified incubator for 75 h. The cells were then washed with 450 µl sterile phosphate buffered saline (PBS) supplemented with 1 mM CaCl2, 0.5 mM MgCl2, 0.1% (w/v) bovine serum albumin (PBS-A) and amastigotes were added to all wells at a multiplicity of infection of 5 (40,000 amastigotes per well). After 40 min at room temperature, plates were returned to the incubator.
Amastigotes were incubated in the presence of THP-1 macrophages for 16 h. Any remaining extracellular amastigotes were subsequently removed by washing with PBS-A followed by addition of 25 µl of the compound pre-dilutions using an Ipette-pro pipetting station (FluidX). The final dilution of each compound was 200-fold. Plates were incubated for 96 h and then washed (250 µl PBS-A) and fixed (4 % (v/v) formaldehyde-PBS, 30 min, room temperature). After fixation, the wells were washed with 250 µl PBS, stained (10 µg/ml DAPI, 0.4 µg/mL HCS Cellmask Deep Red in PBS + 0.1% (v/v) Triton X-100, 30 min, room temperature) and washed with 250 µl PBS. Finally, PBS + 0.05% (v/v) thimerosal was added to the wells, the plates were sealed and imaged on a high-content microscope (GE IN Cell 2000) using a 10x objective. Image analysis was carried out with GE IN Cell Analyzer 1000 Workstation using the “Multi Target Analysis” module. For each well, i) THP-1 cell count (cytotoxicity readout) and ii) average number of amastigotes per cell (potency readout) were […]

Chain of LdMetRS (A0A3Q8IBX2 entry or part of it): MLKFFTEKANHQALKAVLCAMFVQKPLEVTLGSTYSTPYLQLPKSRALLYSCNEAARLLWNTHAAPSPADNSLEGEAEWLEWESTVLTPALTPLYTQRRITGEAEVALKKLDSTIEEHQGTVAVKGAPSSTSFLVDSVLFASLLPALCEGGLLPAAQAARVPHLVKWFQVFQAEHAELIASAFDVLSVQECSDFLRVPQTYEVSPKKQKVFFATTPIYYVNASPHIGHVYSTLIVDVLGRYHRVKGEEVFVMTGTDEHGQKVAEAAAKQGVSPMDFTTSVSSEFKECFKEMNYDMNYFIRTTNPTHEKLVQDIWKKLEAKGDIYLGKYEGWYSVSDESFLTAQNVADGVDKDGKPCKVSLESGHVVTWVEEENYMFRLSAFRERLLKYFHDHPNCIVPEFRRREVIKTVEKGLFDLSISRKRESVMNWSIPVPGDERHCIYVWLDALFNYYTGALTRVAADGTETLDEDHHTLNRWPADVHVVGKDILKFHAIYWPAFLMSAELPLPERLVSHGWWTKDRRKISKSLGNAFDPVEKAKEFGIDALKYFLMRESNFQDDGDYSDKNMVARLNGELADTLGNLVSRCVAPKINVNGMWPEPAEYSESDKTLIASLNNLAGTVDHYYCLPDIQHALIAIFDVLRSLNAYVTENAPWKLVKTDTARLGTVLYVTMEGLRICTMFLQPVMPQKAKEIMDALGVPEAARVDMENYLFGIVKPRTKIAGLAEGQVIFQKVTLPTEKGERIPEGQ

On to `CCN(CC)CCCC(C)Nc1ccnc2cc(Cl)ccc12` (centres unmarked) [chloroquine, reference compound], for which the “competition with lysotracker red accumulation in THP-1 lysosomes” value with THP-1 lysosomes was “did compete with lysotracker red accumulation”.
`CCCCCCCCCCCCCCCCOP(=O)([O-])OCC[N+](C)(C)C` [miltefosine, reference compound]: the “reduction (knock-down) of liver parasite burden (LDU) vs vehicle” value in assay [1] was found to be 99.6%.
Consider `O=c1nc(NCCCNS(=O)(=O)c2cc(Cl)cc(Cl)c2)[nH]c2ccccc12` [Compound 28], for which, at LdMetRS, the IC50 was 1900 nM. Moreover, the EC50 in assay [2] worked out at 19 µM. Further, the “competition with lysotracker red accumulation in THP-1 lysosomes” value with THP-1 lysosomes is “does not compete with lysotracker red”.
